Counter-ions that a name gives are not always drawn. Like-named read-outs stand apart in the source and are kept apart here.
Columns and labels:
[1] = tested on: total cholesterol in the yolk; experiment: Total cholesterol in egg yolk, laying-hen feeding trial (Example 1); format: in vivo, laying hens (Lohmann Selected Leghorn); settings: 4 weeks
Protocol: (§1) At the start of the trial, the laying hens (Lohmann Selected Leghorn) had been laying for 28 weeks. One treatment group consisted of 10 hens. The birds were initially fed with the various active ingredients for 4 weeks. The eggs were then collected for the analyses. 3 independent yolk pools were formed from 6 eggs in each case and were deep-frozen until analyzed. Total cholesterol and triglycerides in the yolk were analyzed by enzymatic methods. The analyses were carried out as stated in the handbook "Veterinarmedizinische Laboruntersuchungen fur die Diagnose und Verlaufskontrolle" (1985), 3rd edition, published by Boehringer Mannheim GmbH, Mannheim.
(§2) For the cholesterol determination, the cholesterol esters were cleaved to cholesterol and fatty acid by the action of cholesterol esterase. Free cholesterol is converted by atmospheric oxygen with the involvement of cholesterol oxidase into Δ^4 -cholestenone and hydrogen peroxide. The resulting hydrogen peroxide forms with 4-aminophenazone and phenol through the catalytic action of peroxidase a red dye whose intensity of color is directly proportional to the cholesterol concentration and can be measured at 500 to 550 nm.
(§3) The data were subjected to analysis of variance, and differences between means were ranged by the Duncan test.

[2] = tested on: triglycerides in the yolk; experiment: Triglycerides in egg yolk, laying-hen feeding trial (Example 1); format: in vivo, laying hens (Lohmann Selected Leghorn); settings: 4 weeks
Protocol: as §1
(§4) The triglycerides are determined enzymatically via their glycerol content. The triglycerides are cleaved enzymatically by the enzymes lipase and esterase. The resulting glycerol is phosphorylated by ATP to glycerol 3-phosphate in the reaction catalyzed by glycerol kinase GK.
glycerol+ATP.revreaction.glycerol 3-phosphate+ADP
The resulting ADP is converted by pyruvate kinase (PK) with phosphoenolpyruvate (PEP) back into ATP, with formation of pyruvate. [drawing 6] Pyruvate is hydrogenated to lactate by lactate dehydrogenase (LDH) with NADH, the NADH being oxidized to NAD. [drawing 7]
The amount of NADH consumed during the reaction is equivalent to the amount of glycerol. NADH is the measured variable and can easily be determined from its absorption at Hg 366 nm, Hg 334 nm or 340 nm.
as §3

[3] = Tocopherol and tocotrienol contents in yolk by HPLC (Example 1); format: in vivo, laying hens (Lohmann Selected Leghorn); settings: for α-Tocopherol content in yolk / α-Tocotrienol content in yolk / γ-Tocopherol content in yolk / δ-Tocopherol content in yolk / δ-Tocotrienol content in yolk: after hydrolysis
Protocol: as §1
Tocopherols and tocotrienols in the yolk pools were determined by HPLC. To do this, the sample is hydrolyzed in aqueous alcoholic medium and extracted several times with diethyl ether. Quantification takes place by comparison with external standards.
Stationary phase: Spherisorb CN 5 μm, 250×4 mm
Mobile phase: n-Hexane with 0.25% i-propanol
Fluorescence detection: 292 nm (extinction) 326 nm (emission)

[4] = tested on: cholesterol content of poultry eggs; settings: cited from earlier work; for reduction of cholesterol content of poultry eggs: literature (Elkin et al.)
[5] = cited from earlier work
cholesterol in yolk = experiment: Cholesterol in egg yolk, laying-hen feeding trial (Example 2); format: in vivo, laying hens; settings: for Cholesterol, yolk: control 10.23; for reduction in yolk cholesterol: significant; for trend in yolk cholesterol content: Example 2
Source text: as §2
(§5) Another feeding experiment was carried out in analogy to Example 1. In this case the intention was to test not only α- and δ-tocotrienol but also a tocotrienol precursor (4-oxo-γ-tocotrienol) and other terpenoids such as farnesyl acetate, perillyl alcohol, linalool and β-ionone, in laying hens.
(§6) The trial protocol corresponds to that in Example 1 but with the following amendments:
(§7) The number of birds comprised 8 hens per treatment.
(§8) Triglyceride and cholesterol were determined in 4 independent yolk pools(each from 6 eggs) and plasma.

plasma cholesterol = experiment: Cholesterol in plasma, laying-hen feeding trial (Example 2); format: in vivo, laying hens; settings: control 125.3
Source text: as §2, §5, §6, §7
(§9) 4 birds in each case from the control and the high dosages were sacrificed at the end of the trial. After taking blood to obtain plasma, the birds were completely exsanguinated. The liver was then removed and deep frozen until analyzed.
as §8

triglycerides in yolk = experiment: Triglycerides in egg yolk, laying-hen feeding trial (Example 2); format: in vivo, laying hens; settings: control 170.4
Protocol: as §4, §5, §6, §7, §8

plasma triglyceride = experiment: Triglycerides in plasma, laying-hen feeding trial (Example 2); format: in vivo, laying hens; settings: for Triglycerides, plasma: control 2496; for reduction of plasma triglyceride level: Example 2, maximum
Protocol: as §4, §5, §6, §7, §9, §8

HMG-CoA reductase = settings: cell culture and rats and mice; cited from earlier work
tumors = settings: cell culture and rats and mice; cited from earlier work
[6] = tested on: cholesterol synthesis in macrophages; settings: Fuhrmann et al. 1997; cited from earlier work
[7] = tested on: β-hydroxy-β-methyl-glutaryl (HMG)-CoA reductase; settings: cited from earlier work
[8] = 500 mg/kg feed, significant, complete yolk
[9] = both dosages (100 and 1000 mg/kg feed)

## CC(=O)Oc1cc2c(c(C)c1C)OC(C)(CC/C=C(\C)CC/C=C(\C)CCC=C(C)C)CC2 (racemic) [γ-tocotrienol acetate]
[1]; [8]
  reduction in cholesterol in the yolk: 15%
[1]; low dosage, 20 mg/kg feed
  effect on cholesterol in the yolk: no effect
[2]; [8]
  reduction in triglycerides in the yolk: 15%
[2]; low dosage, 20 mg/kg feed
  effect on triglycerides in the yolk: no effect
[3]; 20 mg/kg feed
  α-Tocopherol content in yolk: 545 μg/yolk
  α-Tocotrienol content in yolk: 0 μg/yolk
  γ-Tocopherol content in yolk: 393 μg/yolk
  δ-Tocopherol content in yolk: 57 μg/yolk
  δ-Tocotrienol content in yolk: 0 μg/yolk
[3]; 500 mg/kg feed
  α-Tocopherol content in yolk: 433 μg/yolk
  α-Tocotrienol content in yolk: 0 μg/yolk
  γ-Tocopherol content in yolk: 425 μg/yolk
  δ-Tocopherol content in yolk: 59 μg/yolk
  δ-Tocotrienol content in yolk: 366 μg/yolk

## CC(C)c1c(Br)c(Br)c(-c2ccc(F)cc2)n1CC[C@@H](O)C[C@@H](O)CC(=O)O (relative stereo) [(±)-(R*,R*)-3,4-dibromo-β,δ-dihydroxy-2-(4-fluorophenyl)-5-(1-methylethyl)-1H-pyrrole-1-heptanoic acid, Na salt]
[4]
  reduction of cholesterol content of poultry eggs: 30%
[5]; literature (Elkin et al.)
  influence on poultry performance parameters, such as the egg output: without influencing

## CC(C)=CCC/C(C)=C/CC/C(C)=C/CCC1(C)CC(=O)c2cc(O)c(C)c(C)c2O1 (centres unmarked) [4-Oxo-γ-tocotrienol, 4-oxo-γ-tocotrienol]
Cholesterol in yolk; 50 mg/kg feed
  Cholesterol, yolk: 9.78 mg/g
Cholesterol in yolk; 500 mg/kg feed
  Cholesterol, yolk: 8.55 mg/g
Cholesterol in yolk; high dosage (500 mg/kg feed)
  reduction in yolk cholesterol: up to 18%
Plasma cholesterol; 500 mg/kg feed
  Cholesterol, plasma: 166.8 mg/dL
Triglycerides in yolk; 50 mg/kg feed
  Triglycerides, yolk: 188.3 mg/g
Triglycerides in yolk; 500 mg/kg feed
  Triglycerides, yolk: 172.0 mg/g
Plasma triglyceride; 500 mg/kg feed
  Triglycerides, plasma: 4336 mg/dL

## CC(=O)OC/C=C(\C)CC/C=C(\C)CCC=C(C)C [Farnesyl acetate, farnesyl acetate]
Cholesterol in yolk; 750 mg/kg feed
  Cholesterol, yolk: 10.15 mg/g
Cholesterol in yolk; 7500 mg/kg feed
  Cholesterol, yolk: 10.23 mg/g
Plasma cholesterol; 7500 mg/kg feed
  Cholesterol, plasma: 129.3 mg/dL
Triglycerides in yolk; 750 mg/kg feed
  Triglycerides, yolk: 177.1 mg/g
Triglycerides in yolk; 7500 mg/kg feed
  Triglycerides, yolk: 175.9 mg/g
Plasma triglyceride; 7500 mg/kg feed
  Triglycerides, plasma: 1929 mg/dL
Plasma triglyceride
  reduction of plasma triglyceride level: ≤ 25%

## C=CC(C)(O)CCC=C(C)C (centres unmarked) [Linalool, linalool]
Cholesterol in yolk; 100 mg/kg feed
  Cholesterol, yolk: 8.40 mg/g
Cholesterol in yolk; 1000 mg/kg feed
  Cholesterol, yolk: 8.97 mg/g
Cholesterol in yolk; [9]
  reduction in yolk cholesterol: up to 18%
Plasma cholesterol; 1000 mg/kg feed
  Cholesterol, plasma: 211.6 mg/dL
Triglycerides in yolk; 100 mg/kg feed
  Triglycerides, yolk: 187.5 mg/g
Triglycerides in yolk; 1000 mg/kg feed
  Triglycerides, yolk: 163.1 mg/g
Plasma triglyceride; 1000 mg/kg feed
  Triglycerides, plasma: 1907 mg/dL
HMG-CoA reductase
  inhibition of HMG-CoA reductase: inhibit HMG-CoA reductase
tumors
  inhibition of tumors: inhibit tumors

## C=C(C)C1CC=C(CO)CC1 (centres unmarked) [Perillyl alcohol, perillyl alcohol]
Cholesterol in yolk; 500 mg/kg feed
  Cholesterol, yolk: 9.55 mg/g
Cholesterol in yolk; 5000 mg/kg feed
  Cholesterol, yolk: 9.53 mg/g
Cholesterol in yolk
  trend in yolk cholesterol content: trend toward reduced cholesterol contents in yolk
Plasma cholesterol; 5000 mg/kg feed
  Cholesterol, plasma: 165.3 mg/dL
Triglycerides in yolk; 500 mg/kg feed
  Triglycerides, yolk: 188.5 mg/g
Triglycerides in yolk; 5000 mg/kg feed
  Triglycerides, yolk: 174.4 mg/g
Plasma triglyceride; 5000 mg/kg feed
  Triglycerides, plasma: 2197 mg/dL
Plasma triglyceride
  reduction of plasma triglyceride level: ≤ 25%

## C=C(C)[C@H]1CC=C(C)CC1 [d-limonene]
HMG-CoA reductase
  inhibition of HMG-CoA reductase: inhibit HMG-CoA reductase
tumors
  inhibition of tumors: inhibit tumors

## CC(C)=CCC/C(C)=C/CO [geraniol, reference compound]
HMG-CoA reductase
  inhibition of HMG-CoA reductase: inhibit HMG-CoA reductase
tumors
  inhibition of tumors: inhibit tumors

## CC[C@H](C)C(=O)O[C@H]1C[C@@H](C)C=C2C=C[C@H](C)[C@H](CC[C@@H]3C[C@@H](O)CC(=O)O3)[C@H]21 [lovastatin]
[4]
  reduction of cholesterol content of poultry eggs: 15%
[5]; in vivo
  influence on poultry performance parameters, such as the egg output: without influencing

## CC(C)=CCC/C(C)=C/C=C/C(C)=C/C=C/C(C)=C/C=C/C=C(C)/C=C/C=C(C)/C=C/C=C(\C)CCC=C(C)C [lycopene]
[6]
  inhibition of cholesterol synthesis in macrophages: inhibit cholesterol synthesis in macrophages

## CCC(C)(C)C(=O)O[C@H]1C[C@@H](C)C=C2C=C[C@H](C)[C@H](CC[C@@H]3C[C@@H](O)CC(=O)O3)[C@H]21 [simvastatin]
[4]; literature (Huggett et al.; Beyer and Jensen)
  effect on the cholesterol content in eggs: no effect

## CC(=O)/C=C/C1=C(C)CCCC1(C)C [β-Ionone, β-ionone]
Cholesterol in yolk; 100 mg/kg feed
  Cholesterol, yolk: 9.03 mg/g
Cholesterol in yolk; 1000 mg/kg feed
  Cholesterol, yolk: 9.03 mg/g
Cholesterol in yolk; [9]
  reduction in yolk cholesterol: up to 18%
Plasma cholesterol; 1000 mg/kg feed
  Cholesterol, plasma: 201.3 mg/dL
Triglycerides in yolk; 100 mg/kg feed
  Triglycerides, yolk: 190.7 mg/g
Triglycerides in yolk; 1000 mg/kg feed
  Triglycerides, yolk: 184.8 mg/g
Plasma triglyceride; 1000 mg/kg feed
  Triglycerides, plasma: 1954 mg/dL
Plasma triglyceride
  reduction of plasma triglyceride level: ≤ 25%
HMG-CoA reductase
  inhibition of HMG-CoA reductase: inhibit HMG-CoA reductase
tumors
  inhibition of tumors: inhibit tumors

## CC1=C(/C=C/C(C)=C/C=C/C(C)=C/C=C/C=C(C)/C=C/C=C(C)/C=C/C2=C(C)CCCC2(C)C)C(C)(C)CCC1 [β-carotene]
[6]
  inhibition of cholesterol synthesis in macrophages: inhibit cholesterol synthesis in macrophages

## CC(C)=CCC/C(C)=C/CC/C(C)=C/CCC1(C)CCc2cc(O)c(C)c(C)c2O1 (centres unmarked) [γ-tocotrienol]
[3]; fed as γ-tocotrienol acetate
  accumulation of γ-tocotrienol in the yolk: scarcely any accumulation
[3]; high dosage (500 mg/kg feed, as acetate)
  γ-tocotrienol detected in the yolk: 366 µg
[7]; HepG2 cell cultures
  relative effect versus α-tocotrienol: about 30 times

## CC(C)=CCC/C(C)=C/CC/C(C)=C/CCC1(C)CCc2cc(O)cc(C)c2O1 (centres unmarked) [δ-Tocotrienol, δ-tocotrienol]
Cholesterol in yolk; 50 mg/kg feed
  Cholesterol, yolk: 9.25 mg/g
Cholesterol in yolk; 500 mg/kg feed
  Cholesterol, yolk: 9.23 mg/g
Cholesterol in yolk
  trend in yolk cholesterol content: trend toward reduced cholesterol contents in yolk
Plasma cholesterol; 500 mg/kg feed
  Cholesterol, plasma: 163.0 mg/dL
Triglycerides in yolk; 50 mg/kg feed
  Triglycerides, yolk: 185.2 mg/g
Triglycerides in yolk; 500 mg/kg feed
  Triglycerides, yolk: 163.9 mg/g
Plasma triglyceride; 500 mg/kg feed
  Triglycerides, plasma: 2985 mg/dL

## nicotinate [reference compound]
[7]; U.S. Pat. No. 5,217,992
  effect of ester form by comparison with the alcohol and acetate forms: most pronounced
